Target: T1, human plasma protein factor Xa (Homo sapiens, UniProt P00742)
T1 construct: measure proteolytic activity of the enzyme (factor Xa); purchased Haematologic Technologies (Essex Junction, Vt.); host or cells: human plasma
Test: Factor Xa IC50 determination: cleavage of paranitroanilide substrate S-2765 in 96-well plates
Format: biochemical
Settings: fXa 1 nM, S-2765 100 μM, Tris buffered saline pH 7.4, room temperature
Source text: This example illustrates methods for evaluating the compounds of the invention, along with results obtained for such assays. The in vitro and in vivo Factor Xa isoform activities of the inventive compounds can be determined by various procedures known in the art, such as a test for their ability to inhibit the activity of the Factor Xa isoform. […] The IC50 value is the concentration (in nM) of the compound required to provide 50% inhibition of Factor Xa isoform.
An in vitro assay for detecting and measuring inhibition activity against Factor Xa is as follows:
The substrate S-2765 (Z-D-Arg-Gly-Arg-pNA.HCl) was obtained from Diapharma (West Chester, Ohio).
The human plasma protein factor Xa was purchased from Haematologic Technologies (Essex Junction, Vt.).
All assays, which are performed in 96-well microtiter plates, measure proteolytic activity of the enzyme (factor Xa) by following cleavage of paranitroanilide substrate. The assay buffer used for proteolytic assays was Tris buffered saline (20 mM Tris, 150 mM NaCl, 5 mM CaCl2, 0.1% Bovine serum albumin (BSA), 5% Dimethly Sulfoxide (DMSO) pH 7.4). In a 96-well microtiter plate, inhibitor was serially diluted to give a range of concentrations from 0.01 nM to 10 μM (final). Duplicate sets of wells were assayed and control wells without inhibitor were included. Enzyme was added to each well, (fXa concentration=1 nM), the plate was shaken for 5 seconds and then incubated for 5 minutes at room temperature. S2765 was added (100 μM final) and the plate was shaken for 5 seconds (final liquid volume in each well was 200 μl). The degree of substrate hydrolysis was measured at 405 nm on a Thermomax plate reader (Molecular Devices, Sunnyvale, Calif.) for 2 minutes. The initial velocities (mOD/min), for each range of inhibitor concentrations, were fitted to a four parameter equation using Softmax data analysis software. The parameter C, derived from the resulting curve-fit, corresponded to the concentration for half maximal inhibition (IC50).

T1 sequence (P00742 235-488 limits assumed): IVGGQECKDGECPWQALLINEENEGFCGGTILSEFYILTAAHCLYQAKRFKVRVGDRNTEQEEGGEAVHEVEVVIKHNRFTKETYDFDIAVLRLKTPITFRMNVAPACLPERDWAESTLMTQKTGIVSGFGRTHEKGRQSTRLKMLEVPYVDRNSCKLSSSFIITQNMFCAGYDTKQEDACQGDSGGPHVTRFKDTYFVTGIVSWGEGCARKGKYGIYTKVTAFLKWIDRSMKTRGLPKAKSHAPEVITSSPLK
T1 sequence (P00742 41-179 partner limits assumed): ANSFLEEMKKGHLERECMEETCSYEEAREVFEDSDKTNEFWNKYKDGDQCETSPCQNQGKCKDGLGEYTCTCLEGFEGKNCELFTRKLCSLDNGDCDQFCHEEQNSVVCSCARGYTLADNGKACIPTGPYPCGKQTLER

Row | Compound | IC50
1 | O=C(NCC1CC(c2ccc(Nc3ccncc3)cc2F)=NO1)c1ccc(Cl)s1 (centres unmarked) [Example 247, 5-Chloro-thiophene-2-carboxylic acid {3-[2-fluoro-4-(pyridin-4-ylamino)-phenyl]-4,5-dihydro-isoxazol-5-ylmethyl}-amide] | ≤ 100 nM
2 | COC[C@H]1CCCN1C(=O)c1ccc(C2=NOC(CNC(=O)c3ccc(Cl)s3)C2)cc1 (some centres unmarked) [Example 398] | 100 to 500 nM
3 | O=C(NCC1CC(c2ccc(Oc3ccccc3)cc2)=NO1)c1ccc(Cl)s1 (centres unmarked) [Example 5, 5-Chloro-thiophene-2-carboxylic acid [3-(4-phenoxy-phenyl)-4,5-dihydro-isoxazol-5-ylmethyl]-amide] | ≥ 500 nM
4 | O=C(NCc1cn(-c2ccc(-n3cccc(Cl)c3=O)cc2)nn1)c1ccc(Cl)s1 [Example 292, 5-Chloro-N-((1-(4-(3-chloro-2-oxopyridin-1(2H)-yl)phenyl)-1H-1,2,3-triazol-4-yl)methyl)thiophene-2-carboxamide] | ≤ 100 nM
5 | O=C(NCc1cn(-c2ccc(-n3cccc(F)c3=O)cc2)nn1)c1ccc(Cl)s1 [Example 291, 5-Chloro-N-((1-(4-(3-fluoro-2-oxopyridin-1(2H)-yl)phenyl)-1H-1,2,3-triazol-4-yl)methyl)thiophene-2-carboxamide] | ≤ 100 nM
6 | CCOc1cc(Nc2ccc(C3=NOC(CNC(=O)c4ccc(Cl)s4)C3)cc2)ccn1 (centres unmarked) [Example 401, 5-Chloro-N-((3-(4-(2-ethoxypyridin-4-ylamino)phenyl)-4,5-dihydroisoxazol-5-yl)methyl)thiophene-2-carboxamide] | ≤ 100 nM
7 | COc1ccc(CN(C)C)c(-c2ccc(C3=NOC(CNC(=O)c4ccc(Cl)s4)C3)cc2)c1 (centres unmarked) [Example 202, 5-Chloro-thiophene-2-carboxylic acid [3-(2′-dimethylaminomethyl-5′-methoxy-biphenyl-4-yl)-4,5-dihydro-isoxazol-5-ylmethyl]-amide] | ≥ 500 nM
8 | CCN1CCC(C2=NOC(CNC(=O)c3ccc(Cl)s3)C2)CC1 (centres unmarked) [Example 169, 5-Chloro-thiophene-2-carboxylic acid [3-(1-ethyl-piperidin-4-yl)-4,5-dihydro-isoxazol-5-ylmethyl]-amide] | ≥ 500 nM
9 | CN1CCN=C1c1ccc(-c2cccc(CNC(=O)c3ccc(Cl)s3)c2)cc1 [Example 381, 5-Chloro-N-((3-(4-(1-methyl-4,5-dihydro-1H-imidazol-2-yl)phenyl)phenyl)methyl)thiophene-2-carboxamide] | ≤ 100 nM
10 | COCCN(C)Cc1ccccc1-c1ccc(C2=NOC(CNC(=O)c3ccc(Cl)s3)C2)cc1 (centres unmarked) [Example 198, 5-Chloro-thiophene-2-carboxylic acid [3-(2′-{[(2-methoxy-ethyl)-methyl-amino]-methyl}-biphenyl-4-yl) 4,5-dihydro-isoxazol-5-ylmethyl]-amide] | ≤ 100 nM
11 | N=C(c1ccc(C2=NOC(CNC(=O)c3ccc(Cl)s3)C2)c(N2CCCCCC2)c1)N1CCCC1 (centres unmarked) [Example 92, 5-Chloro-thiophene-2-carboxylic acid {3-[2-azepan-1-yl-4-(imino-pyrrolidin-1-yl-methyl)-phenyl]-4,5-dihydro-isoxazol-5-ylmethyl}-amide] | ≤ 100 nM
12 | Cc1ccc(C2=NOC(CNC(=O)c3ccc(Cl)s3)C2)cc1 (centres unmarked) [Example 147, 5-Chloro-thiophene-2-carboxylic acid (3-p-tolyl-4,5-dihydro-isoxazol-5-ylmethyl)-amide] | ≥ 500 nM
13 | CN(c1ccncc1)c1ccc(C2=NOC(CNC(=O)c3ccc(Cl)s3)C2)cc1 (centres unmarked) [Example 227, 5-Chloro-thiophene-2-carboxylic acid {3-[4-(methyl-pyridin-4-yl-amino)-phenyl]-4,5-dihydro-isoxazol-5-ylmethyl}-amide] | ≤ 100 nM
14 | CCOc1cc(C(=N)N(C)C)ccc1C1=NOC(CNC(=O)c2ccc(Cl)s2)C1 (centres unmarked) [Example 106, 5-Chloro-thiophene-2-carboxylic acid {3-[4-(N,N-dimethyl-carbamimidoyl)-2-ethoxy-phenyl]-4,5-dihydro-isoxazol-5-ylmethyl}-amide] | ≤ 100 nM

Further lines, results first:

Row | IC50 | Compound
15 | ≥ 500 nM | CCCN(C)C(=N)c1ccc(-c2cc(CN(C)C(=O)c3ccc(Cl)s3)on2)cc1 [Example 43, 5-Chloro-thiophene-2-carboxylic acid methyl-{3-[4-(N-methyl-N-propyl-carbamimidoyl)-phenyl]-isoxazol-5-ylmethyl}-amide]
16 | ≥ 500 nM | CNC(=N)c1ccc(-c2nc(CNC(=O)c3ccc(Cl)s3)cs2)cc1 [Example 358, N-((2-(4-(N-Methylcarbamimidoyl)phenyl)thiazol-4-yl)methyl)-5-chlorothiophene-2-carboxamide]
17 | ≥ 500 nM | CN(Cc1ccco1)C(=N)c1ccc(-c2nc(CNC(=O)c3ccc(Cl)s3)cs2)cc1 [Example 356, N-((2-(4-(N-(Furan-2-ylmethyl)-N-methylcarbamimidoyl)phenyl)thiazol-4-yl)methyl)-5-chlorothiophene-2-carboxamide]
18 | ≤ 100 nM | CCCN(C)C(=N)c1ccc(-c2cc(CNC(=O)c3ccc(Cl)s3)on2)cc1 [Example 29, 5-Chloro-thiophene-2-carboxylic acid {3-[4-(N-methyl-N-propyl-carbamimidoyl)-phenyl]-isoxazol-5-ylmethyl}-amide]
19 | ≤ 100 nM | CN(C)C(=O)c1ccc(C2=NOC(CNC(=O)c3ccc(Cl)s3)C2)cc1 (centres unmarked) [Example 162, 5-Chloro-thiophene-2-carboxylic acid [3-(4-dimethylcarbamoyl-phenyl)-4,5-dihydro-isoxazol-5-ylmethyl]-amide]
20 | ≥ 500 nM | O=C(NCc1cc(-c2ccccc2)no1)c1ccc(Cl)s1 [Example 146, 5-Chloro-thiophene-2-carboxylic acid (3-phenyl-isoxazol-5-ylmethyl)-amide]
21 | ≥ 500 nM | N=C(c1ccc(-c2csc(CNC(=O)c3ccc(Cl)s3)n2)cc1)N1CCCC1 [Example 362, 5-Chloro-N-((4-(4-(imino(pyrrolidin-1-yl)methyl)phenyl)thiazol-2-yl)methyl)thiophene-2-carboxamide]
22 | ≤ 100 nM | CN1CCN=C1c1ccc(-c2cc(CNC(=O)c3ccc(Cl)s3)on2)c(N2CCOCC2)c1 [Example 99, 5-Chloro-thiophene-2-carboxylic acid {3-[4-(1-methyl-4,5-dihydro-1H-imidazol-2-yl)-2-morpholin-4-yl-phenyl]-isoxazol-5-ylmethyl}-amide]
23 | ≥ 500 nM | O=C(O)c1ccc(-c2cc(CNC(=O)c3ccc(Cl)s3)on2)cc1 [Example 159, 4-(5-{[(5-Chloro-thiophene-2-carbonyl)-amino]-methyl}-isoxazol-3-yl)-benzoic acid]
24 | ≥ 500 nM | CN(C)Cc1cccc(-c2cccc(-c3cc(CNC(=O)c4ccc(Cl)s4)on3)c2)c1 [Example 270, 5-Chloro-thiophene-2-carboxylic acid [3-(3′-dimethylaminomethyl-biphenyl-3-yl)-isoxazol-5-ylmethyl]-amide]
25 | ≤ 100 nM | N=C(c1ccc(-c2cc(CNC(=O)c3ccc(Cl)s3)on2)c(N2CCOCC2)c1)N1CCCC1 [Example 100, 5-Chloro-thiophene-2-carboxylic acid {3-[4-(imino-pyrrolidin-1-yl-methyl)-2-morpholin-4-yl-phenyl]-isoxazol-5-ylmethyl}-amide]
26 | ≤ 100 nM | CNC(=N)c1ccc(C2=NOC(C)(CNC(=O)c3ccc(Cl)s3)C2)cc1 (centres unmarked) [Example 69, 5-Chloro-thiophene-2-carboxylic acid {5-methyl-3-[4-(N-methylcarbamimidoyl)-phenyl]-4,5-dihydro-isoxazol-5-ylmethyl}-amide]
